Measurements as given in publication PMC11259535 (ACS chemical biology, 2024).

T1: succinyl-CoA:glutarate-CoA transferase (SUGCT) (Homo sapiens, UniProt Q9HAC7, Q255A/K256A)
T1 sequence (Q9HAC7 31-438 Q255A/K256A): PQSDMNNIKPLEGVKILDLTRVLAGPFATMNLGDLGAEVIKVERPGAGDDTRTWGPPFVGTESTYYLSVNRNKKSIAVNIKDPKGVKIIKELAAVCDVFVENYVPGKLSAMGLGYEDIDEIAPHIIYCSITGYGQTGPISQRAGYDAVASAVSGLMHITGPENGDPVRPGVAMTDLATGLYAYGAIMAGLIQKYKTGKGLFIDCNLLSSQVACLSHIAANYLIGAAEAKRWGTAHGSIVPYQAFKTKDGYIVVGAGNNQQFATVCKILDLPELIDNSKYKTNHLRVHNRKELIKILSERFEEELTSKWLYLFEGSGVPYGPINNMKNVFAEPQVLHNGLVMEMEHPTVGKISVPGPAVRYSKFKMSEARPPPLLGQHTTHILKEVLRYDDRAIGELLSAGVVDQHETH


Experiments:
[1] = biological target: T1, succinyl-CoA:glutarate-CoA transferase (SUGCT); experiment: co-crystal structure; type: binding
saturation kinetics = substrate: CC(C)(COP(=O)(O)OP(=O)(O)OC[C@H]1O[C@@H](n2cnc3c(N)ncnc32)[C@H](O)[C@@H]1OP(=O)(O)O)[C@@H](O)C(=O)NCCC(=O)NCCSC(=O)CCCC(=O)O; experiment: saturation kinetics; type: biochemical, Homo sapiens

| Molecule | co-crystal structure [1] | Km (saturation kinetics) [µM] |
| --- | --- | --- |
| CCCCc1nc(Cl)c(C(=O)O)n1Cc1ccc(-c2ccccc2-c2nn[nH]n2)cc1 [losartan carboxylic acid] | There was unambiguous density for losartan carboxylic acid in one of the four active sites |  |
| succinyl-CoA:glutarate-CoA transferase (SUGCT) (Homo sapiens) (protein) PQSDMNNIKPLEGVKILDLTRVLAGPFATMNLGDLGAEVIKVERPGAGDDTRTWGPPFVGTESTYYLSVNRNKKSIAVNIKDPKGVKIIKELAAVCDVFVENYVPGKLSAMGLGYEDIDEIAPHIIYCSITGYGQTGPISQRAGYDAVASAVSGLMHITGPENGDPVRPGVAMTDLATGLYAYGAIMAGLIQKYKTGKGLFIDCNLLSSQVACLSHIAANYLIGQKEAKRWGTAHGSIVPYQAFKTKDGYIVVGAGNNQQFATVCKILDLPELIDNSKYKTNHLRVHNRKELIKILSERFEEELTSKWLYLFEGSGVPYGPINNMKNVFAEPQVLHNGLVMEMEHPTVGKISVPGPAVRYSKFKMSEARPPPLLGQHTTHILKEVLRYDDRAIGELLSAGVVDQHETH |  | 17.3 |
